In patent publication US20150087604A1, “ANTI-FATTY ACID SYNTHASE POLYPEPTIDE AND USE THEREOF” (TIANJIN TOPTECH BIO-SCIENCE & TECHNOLOGY CO., LTD., priority 2011, published 2015):
Entries after “also recorded” stand apart in the source; their conditions may differ.

Assays:
HepG2 cells [1] = assay: MTT assay of cell proliferation of hepatoma cells; assay type: cell-based; details: synthesized polypeptide 0.1 μM, 1 μM, 10 μM and 100 μM, 48 hr
Description: (§1) Hepatoma cell line HepG2 was adopted in the experiment. Because SREBP-1c is upstream transcription regulatory factor of FAS, whether there is inhibition of SREBP-1c promoter activity at the molecular level can be used to reflect the transcription state of FAS gene by reporter gene assays. Meanwhile, the detection of FAS promoter activity can directly reflect whether the transcription of FAS is inhibited or not. The nuclear factor κB (nuclear factor KB, NF-κB) is an import transcription factor, and increasing of NF-κB promoter activity indicates the increase of cell proliferation. […]
(2) Culture the cells: Within 12 hr for adhesion of cultured cells, different amount of polypeptides plasmids from Step A (0.25 μg, 0.5 μg and 0.75 μg) or different concentrations of synthesized polypeptides from Example 1 (0.1 μM, 1 μM, 10 μM and 100 μM) were transfected with 8 wells for each concentration, and were incubated for 48 hr in the same condition. 0.3 μg pEGFP-C2 plasmids and 1 μg p-Anti-HBxP1# were cotransfected, and using a fluorescence microscope to check for cells containing the GFP plasmid after 24 hr to make sure the percentage of cells that contain GFP is over 70%; […]
(5) Comparison: Read in an ELISA reader at 490 nm to measure the absorbance for each well. Results were calculated by using Student's t-test.

[2] = Polypeptide drugs acute toxicity test; assay type: in vivo, Kunming white mice; details: 1 g/kg tail intravenous injection; observed 24 hr
Description: Control group and experimental group contained 10 Kunming white mice, with 5 females and 5 males, respectively. Experimental group injected Anti-FAS-P18 with the concentration of 1 g/kg (2.5 mg dried polypeptide drug solved in 0.125 ml ddH2O) by tail intravenous injection; control group, injected 0.25 ml ddH2O. Consecutively observed the mice for 24 hr after injection.

NF-κB promoter = assay: Dual-luciferase reporter gene analysis, NF-κB promoter; assay type: cell-based; details: HepG2 cells; synthesized polypeptide 0.1 μM, 1 μM, 10 μM and 100 μM; 24 hr incubation
Description: as §1, with “proliferation. Therefore, it can test the effects of the invention polypeptides on the proliferation of HepG2 cell by detection of NF-κB promoter activity and (3-(4,5-dimethylthiazol-2-yl)-2,5-diphenyltetrazolium bromide (MTT).” for “proliferation.”
(7) Immediately put the EP tubes into a Luminometer (manufactured by Turner Biosystems). Within 10 sec after 2 sec balance, measured the luminescence.
(8) Added 100 μl fluorescence bleacher. […]
(9) Measured the luminescence within 10 sec.
The relative activity was the ratio of the value of the first luminescence to the value of the second luminescence.
Results shown are representative of three independent experiments according to Mean±SD, and statistical significance was calculated using Student's t test.

HepG2 cells [3] = assay: Inoculation experiment in nude mice (HepG2 tumor growth); assay type: in vivo; details: 10 mg/kg, once in two day, total 10 times
Description: (§2) Suspended the HepG2 cells at exponential phase by treating with trypsin, and counted the number of cells to dilute to 1×10^7 cells/ml with physiological saline, and then store in the ice water. 12 Mice used were 4- to 6-week-old BALB/C females, and were randomly divided into two groups: (1) Control group, injected 0.2 ml diluted cells to the armpit of left forelimb for each mouse, and only injected 0.5 ml ddH2O (without polypeptide drugs); (2) experimental group (the treatment dose was 10 mg/kg), injected 0.2 ml diluted cells to the armpit of left forelimb for each mouse, and within 7 days after the injection, tumor volume (V=L×W^2×0.5) reached to 100 mm^3. And then, injected the above mentioned polypeptide drugs (dried polypeptide drug solved in 0.5 ml ddH2O) once in two day, total 10 times, and recorded the tumor volume before injection. Within 24 hr after the last dose, weighted the mice, and killed the mice to weight the tumor tissue, anti-tumor rate was calculated as follow: […]

[4] = Weight of nude mice in the inoculation experiment; assay type: in vivo
Description: as §2

## Gly-Gly-Cys-Arg-His-Lys-Leu-Val-Cys-Ala-Pro-Ala-Pro-Cys-Asn-Phe-Phe-Thr [Anti-FAS-P18]
HepG2 cells [1]
  cell proliferation (MTT): inhibits cell proliferation in the HepG2 cells in a dose-dependent manner
[2]
  abnormal behaviors after injection: do not have abnormal behaviors
  changes in weight compared with control group: no abnormal changes in weight compared with control group
NF-κB promoter
  activity of NF-κB promoter: inhibits the activity of NF-κB promoter in HepG2 cells in a dose-dependent manner
HepG2 cells [3]
  growth and proliferation of HepG2 cells in nude mice: inhibits the growth and proliferation in the HepG2 cells; also recorded: inhibits the growth and proliferation of the HepG2 cells
HepG2 cells [3]; from tumor weight vs control
  Anti-tumor rate (%): 43.06%
HepG2 cells [3]; within 24 hr after the last dose
  Tumor Weight (X ± S, g): 0.42 ± 0.09 g
[4]; 10 mg/kg, once in two day, total 10 times
  impact on the weight of nude mice: no significantly impact on the weight of nude mice
[4]; body weight of mice after dose, 10 mg/kg, once in two day, total 10 times
  Weight (X ± S, g) After dose: 21.83 ± 0.82 g
[4]; body weight of mice before dose, experimental group 10 mg/kg
  Weight (X ± S, g) Before dose: 15.33 ± 0.75 g
